Consider two compounds from PMC6408443, “Structural determinants of lipid specificity within Ups/PRELI lipid transfer proteins” (Nature Communications, 2019).

Each structure is given as a SMILES string. Substitutions are numbered along the chain they refer to.

Holding throughout (assay): liposome lipid transfer, NBD dequenching
Assay type in all cases: biochemical

The target of assay [1] is T1, Ups1–Mdm35 (Saccharomyces cerevisiae, UniProt Q05776).
T1 construct: N-terminally His-tagged Ups1 with Mdm35, E. coli S30 cell-free expression; heterodimer; with Mitochondrial distribution and morphology protein 35
T1 sequence (Q05776 1-175): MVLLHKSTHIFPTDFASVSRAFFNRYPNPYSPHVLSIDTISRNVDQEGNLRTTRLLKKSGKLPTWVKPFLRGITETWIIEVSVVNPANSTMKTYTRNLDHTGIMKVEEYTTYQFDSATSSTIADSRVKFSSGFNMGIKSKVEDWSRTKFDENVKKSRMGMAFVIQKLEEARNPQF
T1 sequence (O60200 1-86 partner): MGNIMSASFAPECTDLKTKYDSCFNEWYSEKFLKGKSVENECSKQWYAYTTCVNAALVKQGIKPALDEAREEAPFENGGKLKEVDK
To be noted: labelled compound, 12.5 µM donor and 50 µM acceptor liposomes, pH 7.4, 20 °C.

Assay [2] deals with T2, Ups2Δ174–Mdm35 (Saccharomyces cerevisiae, UniProt P35200).
T2 construct: gene UPS2; N-His Ups2 truncated after W174, with Mdm35, E. coli Rosetta-gami2; with Mitochondrial distribution and morphology protein 35
T2 sequence (P35200 1-174): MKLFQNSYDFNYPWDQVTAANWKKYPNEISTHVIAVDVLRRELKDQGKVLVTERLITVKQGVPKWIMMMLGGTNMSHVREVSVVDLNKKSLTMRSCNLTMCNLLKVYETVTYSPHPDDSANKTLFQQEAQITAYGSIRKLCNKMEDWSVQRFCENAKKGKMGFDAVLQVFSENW
T2 sequence (O60200 1-86 partner): T1 sequence (O60200 1-86 partner)
The note with it: labelled compound, 50 nM complex, 12.5 µM donor and 50 µM acceptor liposomes, pH 7.4, 25 °C.

Assay [3] deals with T3, PRELID1–TRIAP1 (Homo sapiens, UniProt Q9Y255).
T3 construct: N-His-tagged PRELID1 co-expressed with TRIAP1 from pETDuet-1 in E. coli; heterodimer
The note with it: labelled compound, 12.5 µM donor and 50 µM acceptor liposomes, pH 7.4, 20 °C.

The target in assay [4] is T4, Ups2 loop-swap variant (Saccharomyces cerevisiae, UniProt P35200).
T4 construct: N-His Ups2Δ174 carrying the Ups1 Omega loop (residues 60-71), codon-optimised, with Mdm35, E. coli Rosetta-gami2; with Mitochondrial distribution and morphology protein 35
T4 sequence (P35200 1-174): T2 sequence (P35200 1-174)
T4 sequence (O60200 1-86 partner): T1 sequence (O60200 1-86 partner)
To be noted: labelled compound; 50 nM complex, 12.5 µM donor and 50 µM acceptor liposomes, pH 7.4, 25 °C.

Assay [5] addresses T5, PRELID1–TRIAP1 (Homo sapiens, UniProt Q9Y255, K58V).
T5 construct: N-His-tagged PRELID1 co-expressed with TRIAP1 from pETDuet-1 in E. coli; heterodimer
To be noted: labelled compound; 120 nM complex, 12.5 µM donor and 50 µM acceptor liposomes, pH 7.4, 20 °C.

For assay [6], the target named is T6, Ups1–Mdm35 (Saccharomyces cerevisiae, UniProt Q05776, K58V).
T6 construct: N-terminally His-tagged Ups1 with Mdm35, E. coli S30 cell-free expression; heterodimer; with Mitochondrial distribution and morphology protein 35
T6 sequence (Q05776 1-175 K58V): T1 sequence (Q05776 1-175) with K58V
T6 sequence (O60200 1-86 partner): T1 sequence (O60200 1-86 partner)
The note with it: labelled compound; 50 nM complex, 12.5 µM donor and 50 µM acceptor liposomes, pH 7.4, 20 °C.

Assay [7] deals with T7, Ups1–Mdm35 (Saccharomyces cerevisiae, UniProt Q05776, E108D).
T7 construct: N-terminally His-tagged Ups1 with Mdm35, E. coli S30 cell-free expression; heterodimer; with Mitochondrial distribution and morphology protein 35
T7 sequence (Q05776 1-175 E108D): T1 sequence (Q05776 1-175) with E108D
T7 sequence (O60200 1-86 partner): T1 sequence (O60200 1-86 partner)
To be noted: labelled compound; 50 nM complex, 12.5 µM donor and 50 µM acceptor liposomes, pH 7.4, 20 °C.

Assay [8] deals with T8, PRELID1–TRIAP1 (Homo sapiens, UniProt Q9Y255, K58T).
T8 construct: N-His-tagged PRELID1 co-expressed with TRIAP1 from pETDuet-1 in E. coli; heterodimer
The note with it: labelled compound; 120 nM complex, 12.5 µM donor and 50 µM acceptor liposomes, pH 7.4, 20 °C.

T3 sequence (Q9Y255 whole entry): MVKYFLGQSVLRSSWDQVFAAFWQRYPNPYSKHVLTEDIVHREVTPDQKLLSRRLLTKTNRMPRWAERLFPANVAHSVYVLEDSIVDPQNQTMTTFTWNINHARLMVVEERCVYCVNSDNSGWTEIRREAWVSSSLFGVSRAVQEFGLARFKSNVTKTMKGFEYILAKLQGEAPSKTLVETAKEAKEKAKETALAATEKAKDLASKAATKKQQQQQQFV
T3 sequence (O43715 whole entry partner): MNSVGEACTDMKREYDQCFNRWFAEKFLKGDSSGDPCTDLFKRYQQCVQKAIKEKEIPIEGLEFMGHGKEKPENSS
T5 sequence (Q9Y255 whole entry K58V): as the sequence (Q9Y255 whole entry) above, with K58V counted along it
T5 sequence (O43715 whole entry partner): as the sequence (O43715 whole entry partner) above
T8 sequence (Q9Y255 whole entry K58T): as the sequence (Q9Y255 whole entry) above, with K58T counted along it
T8 sequence (O43715 whole entry partner): as the sequence (O43715 whole entry partner) above

As for `CCCCCCCC/C=C\CCCCCCCC(=O)OC[C@H](COP(=O)(O)O)OC(=O)CCCCCCCCCCCNc1ccc([N+](=O)[O-])c2nonc12` [NBD-PA], the “liposome lipid transfer, NBD dequenching” value in assay [1] (12.5 nM complex) is “PA transfer of wildtype (WT) and mutant Ups1–Mdm35 complexes in vitro”; in assay [2] (inefficient substrate) it was “Ups2–Mdm35 complexes transferred PA only inefficiently when compared to PS”; in assay [3], “While efficiently mediating the transfer of PA, PRELID1 showed a low PS transfer activity”; in assay [4] it was “we observed efficient PA transport by the loop-swap variant of Ups2”.

Turning to `CCCCCCCC/C=C\CCCCCCCC(=O)OC[C@H](COP(=O)(O)OC[C@H](N)C(=O)O)OC(=O)CCCCCCCCCCCNc1ccc([N+](=O)[O-])c2nonc12` [NBD-PS], the “liposome lipid transfer, NBD dequenching” value was “Ups1–Mdm35 complexes transferred PS only inefficiently when compared to PA” in assay [1] (50 nM complex, inefficient substrate); “substitution of K58 by valine or threonine substantially increased the ability of PRELID1” in assay [5]; “PS transfer by Ups2 and loop-swap variant” in assay [2]; “The mutations K58V or E108D in Ups1 increased PS transport” in assay [6]; “PRELID1 showed a low PS transfer activity, similar to Ups1” in assay [3] (120 nM complex, low activity); “its ability to transfer PS was significantly reduced” in assay [4]. Also, the “liposome lipid transfer, NBD dequenching” value in assay [7] was “The mutations K58V or E108D in Ups1 increased PS transport”; in assay [8] it was “substitution of K58 by valine or threonine substantially increased the ability of PRELID1”.
